For this assay, the target named is T1, Pantothenate synthetase (Mycobacterium tuberculosis (strain ATCC 25618 / H37Rv), UniProt P9WIL5).
T1 sequence (P9WIL5 whole entry): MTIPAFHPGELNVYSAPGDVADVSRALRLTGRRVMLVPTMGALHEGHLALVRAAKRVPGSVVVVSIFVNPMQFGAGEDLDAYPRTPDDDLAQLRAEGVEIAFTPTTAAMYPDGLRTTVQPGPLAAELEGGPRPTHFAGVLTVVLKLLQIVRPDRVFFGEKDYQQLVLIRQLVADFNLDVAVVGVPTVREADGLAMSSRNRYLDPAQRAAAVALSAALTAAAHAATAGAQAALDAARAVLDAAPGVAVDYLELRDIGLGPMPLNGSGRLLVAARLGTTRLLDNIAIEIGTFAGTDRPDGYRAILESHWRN
Put plainly: Binding Assay. The note with it: pH 7.6; 25 °C. On the procedure: The dissociation constants and enthalpies was determined by isothermal titration calorimety.

Structures are written as SMILES.

The term Kd denotes the constant that tells how readily two partners part at equilibrium. In turn, `Nc1ncnc2c1ncn2[C@@H]1O[C@H](CSSCC(O)CO)[C@@H](O)[C@H]1O` (stereo partly specified) [5'-Deoxy-5'-thiodenosine scaffold, 14c] displayed a Kd of 570 µM.

The values above are taken from BindingDB's records for doi:10.1002/cbic.200900537 (University of Cambridge, 2009).
